# Read-outs that look alike come from different tables or passages of the source.
# Key:
# HT1080 tumors = test: In vivo xenograft, human fibrosarcoma HT1080; conditions: HT1080; Day 28; iv Days 0, 7, 14; 4-R 0.30 mg/kg
# Method: Female athymic nu/nu mice (Harlan Laboratories Models, S. L. Barcelona, Spain or Envigo, Spain) were utilized for all experiments. Animal were housed in individually ventilated cages Sealsafe® Plus, Techniplast S.P.A.), up to ten per cage on a 12-hour light-dark cycle at 21-23° C. and 40-60% humidity. […] Animals were acclimated for at least 5 days prior to tumor implantation with a tumor cell suspension.
# HT1080 cells were maintained in vitro at 37° C. with 5% CO2 in Minimum Essential Medium Eagle (MEME) (Sigma-Aldrich, Co). Each animal was orthotopically implanted into gastroecnemius muscle by an intramuscular injection using a 26 G needle and a 1 cc syringe at 4-6 weeks of age, with 10×10^6 HT1080 cells, suspended in serum free medium, without antibiotics.
# (§4) Treatment tolerability was assessed by monitoring body weight evolution, clinical signs of systemic toxicity, as well as evidences of local damage in the injection site.
# In xenograft studies with HT1080 cell line: • Total diameter (tumor+leg) measurements were determined by using digital caliper (Fowler Sylvac, S235PAT).
# (§5) Treatments producing >20% lethality and/or 20% net body weight loss were considered toxic.
# [1] = MTD (Maximum Tolerated Dose) determination, single iv administration; assay type: in vivo; conditions: mice, iv/SD
# From the text: (§1) Female CD-1 or Athymic Nude-Fox1 nu/nu mice (Envigo) were utilized for all experiments. […] Animals were acclimated for five days prior to being individually tattoo-identified. Animal protocols were reviewed and approved according to the regional Institutional Animal Care and Use Committees.
# (§2) Mice were randomly allocated into experimental groups and intravenously administered, once for the MTD (Maximum Tolerated Dose) determination or one administration a week during three consecutive weeks, for the MTMD (Maximum Tolerated Multiple Dose) determination study. The animals were administered with white formulation or with compound dissolved in the experimental formulation at different concentrations. The volume administered was always 10 mL/kg. Once administered, animals were monitored for clinical signs of systemic toxicity, changes in body weight and mortality up to 14 days after the administration.
# [2] = MTMD (Maximum Tolerated Multiple Dose) determination, iv weekly x3; assay type: in vivo; conditions: mice; iv/Q7dx3
# From the text: as §1, §2
# A549 cells = test: cells; conditions: for CC50: read-out: LC50
# Outline: (§3)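 SRB read-out after 72 h exposure; fixed untreated plate served as time-zero reference. Compounds ranged 10 to 0.003 μg/mL over ten 2/5 dilutions, triplicate wells, 1% final DMSO, DMEM with 10% FBS. Values via NCI algorithm, four-parameter logistic regression.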
# HT29 cells = test: cells; conditions: for CC50: read-out: LC50
# Outline: as §3
# H526 tumors = test: In vivo xenograft, human lung (SCLC) H526; conditions: iv Days 0, 7, 14, 12-R 0.05 mg/kg, Compound D 0.5 mg/kg
# Method: (§6) Female athymic nu/nu mice (Harlan Laboratories Models, S. L. Barcelona, Spain or Envigo, Spain) were utilized for all experiments. Animal were housed in individually ventilated cages Sealsafe® Plus, Techniplast S.P.A.), up to ten per cage on a 12-hour light-dark cycle at 21-23° C. and 40-60% humidity. Mice were allowed free access to irradiated standard rodent diet (Tecklad 2914C) and sterilized water. Animals were acclimated for at least 5 days prior to tumor implantation with a tumor cell suspension.
# H526 cells were grown as a suspension and maintained by addition of fresh medium, as the cell density increases, every 2 to 3 days. Every week, culture was reestablished by centrifugation of the suspension with subsequent resuspension in fresh medium at a concentration of 1×10^5 cell/mL. Each animal was subcutaneously implanted (on the right flank using 26 G needle and a 1 cc syringe) at 4-6 weeks of age with 5×10^6 H526 cells suspended in 0.05 mL of a solution consisting of 50% Matrigel® (Corning Incorporated Life Sciences) and 50% medium without serum or antibiotics.
# as §4, §5
# PC-3 tumors = conditions: 12-R 0.05 mg/kg
# From the text: In this model, instead of male, female animals were used because PC-3 growth is not hormone dependant.
# H82 tumors = test: In vivo xenograft, human lung (SCLC) H82; conditions: iv Days 0, 7, 14, 12-R 0.05 mg/kg, Compound D 0.5 mg/kg
# PSN1 cells = test: cells; conditions: for CC50: read-out: LC50
# Outline: as §3
# MDA-MB-231 cells = test: cells; conditions: for CC50: read-out: LC50
# Outline: as §3
# [3] = MDA-MB-231, 72 hours treatment, SRB
# Method for DU-145 tumors: as §6
# Culture cells were passaged every 3 to 5 days upon reaching confluence Each male athymic mice was subcutaneously implanted (on the right flank using a 26 G needle and a 1 cc syringe) at 4-6 weeks of age with 5×10^6 DU-145 cells suspended in 0.05 mL of a solution consisting of 50% Matrigel® Matrix (Corning Incorporated Life Sciences) and 50% medium without serum or antibiotics.
# as §4
# In xenograft studies with other cell lines: • Tumor volume was calculated using the equation (a·b^2)/2, where a: length (longest diameter) and b: width (shortest diameter) were measured in mm by using digital caliper (Fowler Sylvac, S235PAT).
# as §5
# Tables and figures summarize the data obtained from complete experimental groups, i.e. those groups keeping the initial number of animals, n=8-10.
structure (smiles),measurement,setting,value
COc1c(C)cc2c(c1O)[C@@H]1[C@@H]3[C@@H]4SC[C@]5(N[C@@H](CO)Cc6c5[nH]c5ccccc65)C(=O)OC[C@@H](c5c6c(c(C)c(OC(C)=O)c54)OCO6)N3[C@@H](O)[C@H](C2)N1C [Compound 4-R],Total diameter (tumor + leg),HT1080 tumors,18.0 mm
same,MTD at 14 days,"[1]; female, mouse, in vivo",0.25 mg/kg
same,MTMD,[2],0.30 mg/kg
same,CC50,"A549 cells; Homo sapiens, A549, 72 h",> 127 nM
same,CC50,"HT29 cells; Homo sapiens, HT-29, 72 h",> 127 nM
COc1c(C)cc2c(c1O)[C@@H]1[C@@H]3[C@@H]4SC[C@]5(N[C@@H](CN)Cc6c5[nH]c5ccccc65)C(=O)OC[C@@H](c5c6c(c(C)c(OC(C)=O)c54)OCO6)N3[C@@H](O)[C@H](C2)N1C [Compound 12-R],Median Tumor Volume,"H526 tumors; Table 32, Day 0.0",214.20 mm^3
same,Median Tumor Volume,"H526 tumors; Table 32, Day 2.0",404.50 mm^3
same,Median Tumor Volume,"H526 tumors; Table 32, Day 4.0",680.50 mm^3
same,Median Tumor Volume,"H526 tumors; Table 32, Day 7.0",995.20 mm^3
same,Median Tumor Volume,"H526 tumors; Table 32, Day 9.0",1290.50 mm^3
same,Median Tumor Volume,"H526 tumors; Table 32, Day 11.0",1568.00 mm^3
same,Median Tumor Volume,"H526 tumors; Table 32, Day 14.0",2025.00 mm^3
same,Median Tumor Volume,"PC-3 tumors; Day 0, iv Days 0, 7 and 14, 12-S […]",129.0 mm^3
same,Median Tumor Volume,"PC-3 tumors; Day 2, iv Days 0, 7 and 14, 12-S […]",136.2 mm^3
same,Median Tumor Volume,"PC-3 tumors; Day 4, iv Days 0, 7 and 14, 12-S […]",144.2 mm^3
same,Median Tumor Volume,"PC-3 tumors; Day 7, iv Days 0, 7 and 14, 12-S […]",172.2 mm^3
same,Median Tumor Volume,"PC-3 tumors; Day 11, iv Days 0, 7 and 14, 12-S […]",183.6 mm^3
same,Median Tumor Volume,"PC-3 tumors; Day 14, iv Days 0, 7 and 14, 12-S […]",205.2 mm^3
same,Median Tumor Volume,"PC-3 tumors; Day 16, iv Days 0, 7 and 14, 12-S […]",256.0 mm^3
same,Median Tumor Volume,"PC-3 tumors; Day 18, iv Days 0, 7 and 14, 12-S […]",325.7 mm^3
same,Median Tumor Volume,"PC-3 tumors; Day 21, iv Days 0, 7 and 14, 12-S […]",322.2 mm^3
same,Median Tumor Volume,"PC-3 tumors; Day 23, iv Days 0, 7 and 14, 12-S […]",407.8 mm^3
same,Median Tumor Volume,"PC-3 tumors; Day 25, iv Days 0, 7 and 14, 12-S […]",419.9 mm^3
same,Median Tumor Volume,"PC-3 tumors; Day 29, iv Days 0, 7 and 14, 12-S […]",459.1 mm^3
same,Median Tumor Volume,"PC-3 tumors; Day 32, iv Days 0, 7 and 14, 12-S […]",512.1 mm^3
same,Median Tumor Volume,"PC-3 tumors; Day 35, iv Days 0, 7 and 14, 12-S […]",579.2 mm^3
same,Median Tumor Volume,"PC-3 tumors; Day 37, iv Days 0, 7 and 14, 12-S […]",613.8 mm^3
same,Median Tumor Volume,"PC-3 tumors; Day 39, iv Days 0, 7 and 14, 12-S […]",764.1 mm^3
same,Median Tumor Volume,"PC-3 tumors; Day 42, iv Days 0, 7 and 14, 12-S […]",785.0 mm^3
same,Median Tumor Volume,"PC-3 tumors; Day 44, iv Days 0, 7 and 14, 12-S […]",845.5 mm^3
same,Median Tumor Volume,"PC-3 tumors; Day 46, iv Days 0, 7 and 14, 12-S […]",748.0 mm^3
same,Median Tumor Volume,"PC-3 tumors; Day 49, iv Days 0, 7 and 14, 12-S […]",808.7 mm^3
same,Median Tumor Volume,"PC-3 tumors; Day 51, iv Days 0, 7 and 14, 12-S […]",855.8 mm^3
same,Median Tumor Volume,"PC-3 tumors; Day 56, iv Days 0, 7 and 14, 12-S […]",1125.2 mm^3
same,Median Tumor Volume,"H82 tumors; Table 33, Day 0.0",170.50 mm^3
same,Median Tumor Volume,"H82 tumors; Table 33, Day 2.0",381.40 mm^3
same,Median Tumor Volume,"H82 tumors; Table 33, Day 5.0",793.20 mm^3
same,Median Tumor Volume,"H82 tumors; Table 33, Day 7.0",1187.20 mm^3
same,Median Tumor Volume,"H82 tumors; Table 33, Day 9.0",1699.30 mm^3
same,Median Tumor Volume,"H82 tumors; Table 33, Day 12.0",2125.60 mm^3
same,CC50,"PSN1 cells; Homo sapiens, PSN1, 72 h",> 128 nM
COc1ccc2[nH]c3c(c2c1)C[C@H](CO)N[C@]31CS[C@@H]2c3c(OC(C)=O)c(C)c4c(c3[C@H](COC1=O)N1[C@@H]2[C@H]2c3c(cc(C)c(OC)c3O)C[C@@H]([C@@H]1O)N2C)OCO4 [Compound 19-R],MTD,[1],0.15 mg/kg
same,MTMD,[2],0.15 mg/kg
same,TGI,"PSN1 cells; PSN1, 72 hours treatment, SRB",1.35E−09 Molar
same,TGI,"A549 cells; A549, 72 hours treatment, SRB",3.56E−09 Molar
same,CC50,"A549 cells; A549, 72 hours treatment, SRB",> 123 nM
same,TGI,MDA-MB-231 cells; [3],1.35E−09 Molar
same,CC50,MDA-MB-231 cells; [3],> 123 nM
COc1ccc2[nH]c3c(c2c1)C[C@@H](CO)N[C@]31CS[C@@H]2c3c(OC(C)=O)c(C)c4c(c3[C@H](COC1=O)N1[C@@H]2[C@H]2c3c(cc(C)c(OC)c3O)C[C@@H]([C@@H]1O)N2C)OCO4 [Compound 19-S],MTD,[1],0.5 mg/kg
same,MTMD,[2],0.75 mg/kg
same,GI50,"PSN1 cells; PSN1, 72 hours treatment, SRB",2.95 nM
same,TGI,"PSN1 cells; PSN1, 72 hours treatment, SRB",3.19E−09 Molar
same,CC50,"PSN1 cells; PSN1, 72 hours treatment, SRB",> 123 nM
same,GI50,"A549 cells; A549, 72 hours treatment, SRB",3.07 nM
same,TGI,"A549 cells; A549, 72 hours treatment, SRB",3.31E−09 Molar
same,CC50,"A549 cells; A549, 72 hours treatment, SRB",> 123 nM
same,GI50,MDA-MB-231 cells; [3],1.96 nM
same,TGI,MDA-MB-231 cells; [3],3.31E−09 Molar
same,CC50,MDA-MB-231 cells; [3],11 nM
same,GI50,"HT29 cells; HT29, 72 hours treatment, SRB",1.35 nM
same,TGI,"HT29 cells; HT29, 72 hours treatment, SRB",1.60E−09 Molar
same,CC50,"HT29 cells; HT29, 72 hours treatment, SRB",> 123 nM
COc1ccc2oc3c(c2c1)CCN[C@]31CS[C@@H]2c3c(OC(C)=O)c(C)c4c(c3[C@H](COC1=O)N1[C@@H]2[C@H]2c3c(cc(C)c(OC)c3O)C[C@@H]([C@@H]1O)N2C)OCO4 [Compound 35],MTMD,[2],0.25 mg/kg
same,GI50,"PSN1 cells; Homo sapiens, PSN1, 72 h",6.24 nM
same,CC50,"PSN1 cells; Homo sapiens, PSN1, 72 h",14 nM
same,IC (TGI),"PSN1 cells; Homo sapiens, PSN1, 72 h, read-out: TGI",9.03 nM
same,GI50,"A549 cells; Homo sapiens, A549, 72 h",8.14 nM
same,CC50,"A549 cells; Homo sapiens, A549, 72 h",> 127 nM
same,IC (TGI),"A549 cells; Homo sapiens, A549, 72 h, read-out: TGI",8.78 nM
same,GI50,"MDA-MB-231 cells; Homo sapiens, MDA-MB-231, 72 h",4.58 nM
same,CC50,"MDA-MB-231 cells; Homo sapiens, MDA-MB-231, 72 h",16.5 nM
same,IC (TGI),"MDA-MB-231 cells; Homo sapiens, MDA-MB-231, 72 h, read-out: TGI",8.27 nM
same,GI50,"HT29 cells; Homo sapiens, HT-29, 72 h",7.89 nM
same,CC50,"HT29 cells; Homo sapiens, HT-29, 72 h",> 127 nM
same,IC (TGI),"HT29 cells; Homo sapiens, HT-29, 72 h, read-out: TGI",8.65 nM
COc1c(C)cc2c(c1O)[C@@H]1[C@@H]3[C@@H]4SC[C@]5(N[C@H](CO)Cc6c5oc5ccccc65)C(=O)OC[C@@H](c5c6c(c(C)c(OC(C)=O)c54)OCO6)N3[C@@H](O)[C@H](C2)N1C [Compound 39-S],Median Tumor Volume,"DU-145 tumors; Day 0, 39-S 1.00 mg/Kg iv Days 0, 7 and 14",179.9 mm^3
same,Median Tumor Volume,"DU-145 tumors; Day 2, 39-S 1.00 mg/Kg iv Days 0, 7 and 14",199.9 mm^3
same,Median Tumor Volume,"DU-145 tumors; Day 4, 39-S 1.00 mg/Kg iv Days 0, 7 and 14",222.2 mm^3
same,Median Tumor Volume,"DU-145 tumors; Day 7, 39-S 1.00 mg/Kg iv Days 0, 7 and 14",340.5 mm^3
same,Median Tumor Volume,"DU-145 tumors; Day 9, 39-S 1.00 mg/Kg iv Days 0, 7 and 14",354.1 mm^3
same,Median Tumor Volume,"DU-145 tumors; Day 11, 39-S 1.00 mg/Kg iv Days 0, 7 and 14",349.7 mm^3
same,Median Tumor Volume,"DU-145 tumors; Day 14, 39-S 1.00 mg/Kg iv Days 0, 7 and 14",429.1 mm^3
same,Median Tumor Volume,"DU-145 tumors; Day 16, 39-S 1.00 mg/Kg iv Days 0, 7 and 14",454.8 mm^3
same,Median Tumor Volume,"DU-145 tumors; Day 18, 39-S 1.00 mg/Kg iv Days 0, 7 and 14",449.7 mm^3
same,Median Tumor Volume,"DU-145 tumors; Day 21, 39-S 1.00 mg/Kg iv Days 0, 7 and 14",517.5 mm^3
same,Median Tumor Volume,"DU-145 tumors; Day 23, 39-S 1.00 mg/Kg iv Days 0, 7 and 14",568.5 mm^3
same,Median Tumor Volume,"DU-145 tumors; Day 25, 39-S 1.00 mg/Kg iv Days 0, 7 and 14",629.4 mm^3
same,Median Tumor Volume,"DU-145 tumors; Day 28, 39-S 1.00 mg/Kg iv Days 0, 7 and 14",775.7 mm^3
same,CC50,"HT29 cells; Homo sapiens, HT-29, 72 h",> 127 nM

# From US10538535B2, “Antitumoral compounds” (priority 2017, dated 2020)
